Measured values taken from patent US20070053918A1, “Injectable depots consisting of liposomal aggregates for the delivery of active substances” (NOVOSOM AG, priority 2003, published 2007).

Experiments:
[1] = Inclusion of leuprolide acetate in liposomes (ultracentrifugation, RP-HPLC); assay type: physicochemical; conditions: formulation L1 DPPC/DPPG/Chol liposomes, 100 mM lipid, extrusion 400 nm
Description: is dissolved in chloroform at 50° C. and subsequently dried completely in vacuum in a rotary evaporator. The lipid film is added with leuprolide acetate solution (2.5 mg/ml in 10 mM HEPES, 150 mM NaCl, pH 6) in an amount so as to form a 100 mM suspension. Subsequently, this suspension is hydrated in a water bath at 50° C for 45 minutes with agitating. Thereafter, the suspension is frozen. This is followed by 3 additional cycles of freezing and thawing.
Following final thawing, the liposomes are subjected to multiple extrusions through a membrane having a pore width of 400 nm (Avestin LiposoFast, polycarbonate membrane with a pore width of 400 nm).
Following removal of free leuprolide acetate, the percentage of entrapped leuprolide acetate is determined by means of triple sedimentation in an ultracentrifuge at 60,000×g for 45 minutes. The leuprolide acetate is determined following extraction with CHCl3 and CH3OH, using RP-HPLC. Inclusion rates of about 15% leuprolide acetate are found.

[2] = Inclusion of insulin in liposomes (ELISA after liberation from liposomes); assay type: physicochemical; conditions: DPPC/DPPG/Chol 50:10:40 liposomes, 50 mM lipid, extrusion 200 or 400 nm
Description: A mixture of 50 mole-% DPPC, 10 mole-% DPPG and 40 mole-% Chol is dissolved in chloroform at 50° C. and subsequently dried completely in vacuum in a rotary evaporator. The lipid film is added with human insulin solution (recombinant insulin; 7.5 mg/ml insulin in 10 mM glycine-HCl, 300 mM sucrose, pH 3) in an amount so as to form a 50 mM suspension. Subsequently, this suspension is hydrated in a water bath at 50° C. for 45 minutes by agitating and treated in an ultrasonic bath for another 5 minutes. Thereafter, the suspension is frozen. This is followed by 3 cycles of freezing and thawing, each thawing being followed by a 5 minute treatment in the ultrasonic bath.
Following final thawing, the liposomes are subjected to multiple extrusions through a membrane having a pore width of 200 nm or 400 nm (Avestin LiposoFast, polycarbonate membrane with a pore width of 200 or 400 nm). Following extrusion, the resulting suspension is rebuffered by adding a solutions of HEPES, pH 7.5, and NaCl. After filtration of the liposomes through […], non-entrapped insulin is removed by gel filtration (S-200 column, Pharmacia) . Following liberation from the liposomes, the amount of entrapped insulin is determined by means of an ELISA (DRG-ELISA Kit). Inclusion rates of 50-70% insulin are found.

Row | Molecule | Inclusion rate of leuprolide acetate [1] | Inclusion rate of insulin [2]
1 | CCNC(=O)[C@@H]1CCCN1C(=O)[C@H](CCCNC(=N)N)NC(=O)[C@H](CC(C)C)NC(=O)[C@@H](CC(C)C)NC(=O)[C@H](Cc1ccc(O)cc1)NC(=O)[C@H](CO)NC(=O)[C@H](Cc1c[nH]c2ccccc12)NC(=O)[C@H](Cc1c[nH]cn1)NC(=O)[C@@H]1CCC(=O)N1 [leuprolide acetate] | about 15% | 
2 | insulin: recombinant human insulin entrapped in DPPC/DPPG/Chol 50:10:40 liposomes |  | 50-70%
